# Where two headings read alike, the source gives them in different places.
# Columns and labels:
# [1] = system: MCF-7 human breast cancer cell line; settings: previously described compounds, cited from earlier work
# [2] = system: HCT-116 human colon cancer cell line; experiment: Proliferation assay (sulphorhodamine-B) in HCT-116; format: cell-based; settings: 72 h of treatment, mean ± SD
# Procedure: (§1) MCF-7, HCT-116, A-375 and SKBR cells were grown at 37 °C in an atmosphere containing 5% CO2, with Dulbecco’s modified Eagle Medium (DMEM) (Gibco, Grand Island, NY) supplemented with 10% heat-inactivated foetal bovine serum (FBS) (Gibco), 2% L-glutamine, 2.7% sodium bicarbonate, 1% Hepes buffer, 40 mg/L gentamicin and 500 mg/L ampicillin.
# (§2) Compounds were dissolved in DMSO and stored at −20 °C. For each experiment, the stock solutions were further diluted in medium to obtain the desired concentrations. The final solvent concentration in cell culture was ≤ 0.1% v/v of DMSO, a concentration without any effect on cell replication. Parallel cultures of MCF-7, HCT-116, A375 and SKBR-3 cells in medium with DMSO were used as controls.
# (§3) The effect of the compounds on cell viability was assessed using the sulphorhodamine-B colorimetric assay. Cells suspension (1 × 10^3 cells/well) were seeded onto 24-well plates and incubated for 24 h. The cells were then treated with different concentrations of drugs in their respective culture medium and maintained with the treatment for 3 days. Three days later, wells were aspirated and fresh medium and drug were added. Then cell cultures were maintained for 3 additional days. Thereafter, a Titertek Multiscan (Flow, Irvine, CA) at 492 nm was used. The linearity of the SRB assay was evaluated with a cell number for each cell stock before each cell growth experiment. The IC50 values were calculated from semi-logarithmic dose–response curves by linear interpolation. All the experiments were plated in triplicate wells and were carried out twice.
# (§4) We then investigated the effects of the target compounds on cell proliferation on the human breast cancer cell lines MCF-7 and SKBR-3, the human colon carcinoma cell line HCT-116 and the human malignant melanoma cell line A-375. The antiproliferative activity of 7–9 was evaluated using sulphorhodamine-B colorimetric assay after 72 h of treatment (Table 3).
# (§5) All experiments were conducted in duplicate and gave similar results. The data are mean ± SD of three independent determinations. MCF-7: human breast cancer cell line; SKBR3: human breast cancer cell line; HCT-116: human colon cancer cell line and A-375: human melanoma cancer cell line.
# [3] = system: MCF-7, SKBR3, HCT-116 and A-375 cell lines; experiment: Proliferation assay (sulphorhodamine-B), all tumour cell lines studied; format: cell-based; settings: Homo sapiens, span over the four cell lines, read-out: IC50 against all the tumour cell lines studied
# Procedure: as §1
# Compounds were dissolved in DMSO and stored at −20 °C. For each experiment, the stock solutions were further diluted in medium to obtain the desired concentrations. The final solvent concentration in cell culture was ≤ 0.1% v/v of DMSO, a concentration without any effect on cell replication. […]
# The effect of the compounds on cell viability was assessed using the sulphorhodamine-B colorimetric assay. […] The linearity of the SRB assay was evaluated with a cell number for each cell stock before each cell growth experiment. The IC50 values were calculated from semi-logarithmic dose–response curves by linear interpolation. […]
# as §4, with “3). […]” for “3).”
# [4] = system: SKBR3 human breast cancer cell line; experiment: Proliferation assay (sulphorhodamine-B) in SKBR3; format: cell-based; settings: SK-BR-3, 72 h of treatment, mean ± SD
# Procedure: as §1, §2, §3, §4, §5
# isolated HER2 = isolated HER2 (Homo sapiens, UniProt P04626); experiment: HER2 inhibition assay, radiometric protein kinase assay (33PanQinase Activity Assay); format: biochemical; settings: for ΔΔG Experiment (3 -> L): binding free energy difference relative to bozepinib (3), extracted from IC50 values; for IC50: isolated HER2, radiometric assay, 10 concentrations in singlicate
# isolated HER2, sequence (P04626 23-1255): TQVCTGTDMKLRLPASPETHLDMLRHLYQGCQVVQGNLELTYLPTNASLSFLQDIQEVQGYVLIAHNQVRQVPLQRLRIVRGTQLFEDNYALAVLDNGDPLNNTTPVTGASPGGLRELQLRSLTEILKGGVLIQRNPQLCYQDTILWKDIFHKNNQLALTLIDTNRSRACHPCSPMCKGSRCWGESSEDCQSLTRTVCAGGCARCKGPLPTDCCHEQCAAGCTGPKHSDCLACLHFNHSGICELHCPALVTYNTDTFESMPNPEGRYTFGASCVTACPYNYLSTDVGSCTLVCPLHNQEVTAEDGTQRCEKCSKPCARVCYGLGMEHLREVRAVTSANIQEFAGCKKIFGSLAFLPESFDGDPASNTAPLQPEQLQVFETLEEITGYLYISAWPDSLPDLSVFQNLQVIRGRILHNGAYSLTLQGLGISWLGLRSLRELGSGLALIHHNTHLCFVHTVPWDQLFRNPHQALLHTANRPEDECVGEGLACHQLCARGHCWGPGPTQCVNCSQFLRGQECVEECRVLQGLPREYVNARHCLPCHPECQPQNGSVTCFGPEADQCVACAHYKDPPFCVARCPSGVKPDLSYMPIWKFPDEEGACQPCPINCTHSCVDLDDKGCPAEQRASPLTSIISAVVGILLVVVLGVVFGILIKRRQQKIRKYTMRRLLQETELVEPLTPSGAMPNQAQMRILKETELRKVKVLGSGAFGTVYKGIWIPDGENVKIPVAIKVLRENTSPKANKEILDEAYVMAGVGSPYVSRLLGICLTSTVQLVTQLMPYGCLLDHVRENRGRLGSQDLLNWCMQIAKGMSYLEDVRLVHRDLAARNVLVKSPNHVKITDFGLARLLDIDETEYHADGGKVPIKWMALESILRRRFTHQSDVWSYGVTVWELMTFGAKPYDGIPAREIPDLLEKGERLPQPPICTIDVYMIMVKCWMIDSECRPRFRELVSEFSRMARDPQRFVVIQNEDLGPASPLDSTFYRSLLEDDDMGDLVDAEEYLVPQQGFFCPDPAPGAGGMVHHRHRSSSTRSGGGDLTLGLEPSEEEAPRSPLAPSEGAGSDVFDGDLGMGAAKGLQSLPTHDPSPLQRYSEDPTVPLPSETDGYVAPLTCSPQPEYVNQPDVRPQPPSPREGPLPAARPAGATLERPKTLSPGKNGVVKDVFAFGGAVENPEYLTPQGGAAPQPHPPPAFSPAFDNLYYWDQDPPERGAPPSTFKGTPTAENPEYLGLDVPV
# Procedure: The IC50 profile of the target compounds was determined using isolated HER2. IC50 values were measured by testing 10 concentrations (1 × 10 ^−4 M to 3 × 10 ^−9 M) of each compound in singlicate. A radiometric protein kinase assay (33PanQinase® Activity Assay) was used for measuring the kinase activity of HER2. The assay was performed in 96-well FlashPlatesTM from PerkinElmer (Boston, MA) in a 50 µl reaction volume. […] The reaction cocktails were incubated at 30 °C for 60 min. The reaction was halted with 50 µl of 2% (v/v) H3PO4, plates were aspirated and washed two times with 200 µl 0.9% (w/v) NaCl. Incorporation of ^33Pi was determined with a microplate scintillation counter (Microbeta, Wallac, Waltham, MA).
# Human epidermal growth factor receptor 2 (HER2) is overexpressed in about 20% of all breast cancers. […] This prompted us to evaluated compounds 7–9 for their in vitro HER2 inhibitory effect. The IC50 profile of the target compounds was determined against isolated HER2 using a radiometric assay (Table 1).
# [5] = system: A-375 human melanoma cancer cell line; experiment: Proliferation assay (sulphorhodamine-B) in A-375; format: cell-based; settings: 72 h of treatment, mean ± SD, read-out: IC50 A375
# Procedure: as §1, §2, §3, §4, §5
# [6] = system: MCF-7 human breast cancer cell line; experiment: Proliferation assay (sulphorhodamine-B) in MCF-7; format: cell-based; settings: MCF7, 72 h of treatment, mean ± SD
# Procedure: as §1, §2, §3, §4, §5
# Bax = experiment: Western blot, Bax expression in SKBR cells; format: cell-based, human; settings: 5 µM, 4 h and 16 h, control and treated cells
# Procedure: (§6) We performed a western blot to study differences in protein expression after treatment with 5 µM of 7c.
# (§7) SKBR cells seeded on 6-well plates were treated during 4 h and 16, lysed using RIPA Lysis Buffer System (Santa Cruz Biotechnology, Santa Cruz, CA) and quantified by Pierce™ BCA Protein Assay Kit (Thermo Fisher Scientific, Waltham, MA). Western blot was realised using 4× Laemmli sample buffer (Bio-Rad, Hercules, CA) and separated by SDS-polyacrylamide gel electrophoresis (SDS–PAGE) and then, transferred to PVDF membranes. Blocking was realised with milk in PBS 5%.
# (§8) The following primary antibodies were used to detect protein expression,: caspase 3: ref-9662S (Cell Signalling, Beverly, MA), caspase 1(14F468): sc-56036 (Santa Cruz Biotechnology, Santa Cruz, CA), cytochrome-c (A-8): sc-13156 (Santa Cruz Biotechnology, Santa Cruz, CA), Bax(B-9): sc-7480 (Santa Cruz Biotechnology, Santa Cruz, CA) and β-actin: sc-47778 (Santa Cruz Biotechnology, Santa Cruz, CA). […] Protein–antibody complexes were made visible using enhanced chemiluminescence (ECL, Bonus, Amersham, Little Chalfont, UK) with the program IMAGE READER LAS-4000 in a LAS-4000 imaging system. Quantity One program were used to analyse the intensity of the signal. […]
# HER2 = experiment: Western blot, HER2 expression in SKBR cells; format: cell-based, human; settings: 5 µM
# Procedure: as §6, §7, §8
# cytochrome c = experiment: Western blot, cytochrome c expression in SKBR cells; format: cell-based, human; settings: 5 µM
# Procedure: as §6, §7, §8
# caspase 1 = experiment: Western blot, caspase 1 expression in SKBR cells; format: cell-based, human; settings: 5 µM, 16 h of exposition
# Procedure: as §6, §7, §8
# pro-caspase 3 = experiment: Western blot, pro-caspase 3 expression in SKBR cells; format: cell-based, human; settings: 5 µM
# Procedure: as §6, §7, §8
# [7] = read-out: in vitro antiproliferative activity against MCF-7
IC50 [2],IC50 [4],ΔΔG Experiment (3 -> L) (isolated HER2),IC50 (isolated HER2),IC50 [5],melting point,IC50 [6],SMILES,further results
87 ± 0.19 µM,41.7 ± 0.79 µM,-0.44 kcal/mol,14.4 µM,> 100 µM,203 to 205 °C,20.7 ± 0.02 µM,"CN(C)c1nc(Cl)nc2c1ncn2C1CN(S(=O)(=O)c2ccc([N+](=O)[O-])cc2)c2ccccc2CO1 (stereo not shown) [Compound 9c, 2-Chloro-6-dimethylamino-9-[1-(p-nitrobenzenesulfonyl)-1,2,3,5-tetrahydro-4,1-benzoxazepine-3-yl]-9H-purine]",–
> 100 µM,> 100 µM,–,24.6 µM,> 100 µM,142 to 144 °C,18 ± 0.02 µM,"O=[N+]([O-])c1ccccc1S(=O)(=O)N1CC(n2cnc3c(Oc4ccccc4)nc(Cl)nc32)OCc2ccccc21 (stereo not shown) [Compound 9f, 2-Chloro-6-phenoxy-9-[1-(o-nitrobenzenesulfonyl)-1,2,3,5-tetrahydro-4,1-benzoxazepine-3-yl]-9H-purine]",–
> 100 µM,> 100 µM,–,> 100 µM,> 100 µM,152 to 157 °C,22.5 ± 0.02 µM,"O=[N+]([O-])c1ccccc1S(=O)(=O)N1CC(n2cnc3c(Nc4ccccc4)nc(Cl)nc32)OCc2ccccc21 (stereo not shown) [Compound 9g, 2-Chloro-6-anilino-9-[1-(o-nitrobenzenesulfonyl)-1,2,3,5-tetrahydro-4,1-benzoxazepine-3-yl]-9H-purine]",–
> 100 µM,> 100 µM,0.41 kcal/mol,55.5 µM,> 100 µM,182 to 183 °C,13.8 ± 0.02 µM,"O=[N+]([O-])c1ccc(S(=O)(=O)N2CC(n3cnc4c(Nc5ccccc5)nc(Cl)nc43)OCc3ccccc32)cc1 (stereo not shown) [Compound 9d, 2-Chloro-6-anilino-9-[1-(p-nitrobenzenesulfonyl)-1,2,3,5-tetrahydro-4,1-benzoxazepine-3-yl]-9H-purine]",–
> 100 µM,> 100 µM,–,13.3 µM,> 100 µM,210 to 212 °C,22.4 ± 0.03 µM,"O=[N+]([O-])c1ccc(S(=O)(=O)N2CC(n3cnc4c(Oc5ccccc5)nc(Cl)nc43)OCc3ccccc32)cc1 (stereo not shown) [Compound 9b, 2-Chloro-6-phenoxy-9-[1-(p-nitrobenzenesulfonyl)-1,2,3,5-tetrahydro-4,1-benzoxazepine-3-yl]-9H-purine]",–
> 100 µM,> 100 µM,–,11.5 µM,92.2 ± 8.9 µM,212 to 214 °C,20.5 ± 0.06 µM,"O=[N+]([O-])c1ccccc1S(=O)(=O)N1CC(n2cnc3c(Sc4ccccc4)nc(Cl)nc32)OCc2ccccc21 (stereo not shown) [Compound 9e, 2-Chloro-6-phenylthio-9-[1-(o-nitrobenzenesulfonyl)-1,2,3,5-tetrahydro-4,1-benzoxazepine-3-yl]-9H-purine]",–

# More lines, now with the values behind:
SMILES,IC50 [2],IC50 [4],ΔΔG Experiment (3 -> L) (isolated HER2),IC50 (isolated HER2),IC50 [5],melting point,IC50 [6],further results
O=[N+]([O-])c1ccccc1S(=O)(=O)N1CC(n2cnc3ncnc(Sc4ccccc4)c32)OCc2ccccc21 (stereo not shown) [Compound 2],–,–,–,–,–,–,–,"IC50 [1, 7]: 2.59 µM"
"Cc1ccc(S(=O)(=O)N2CC(n3cnc4c(Cl)ncnc43)OCc3ccccc32)cc1 (stereo not shown) [Compound 7a, 6-Chloro-9-[1-(p-methylbenzenesulfonyl)-1,2,3,5-tetrahydro-4,1-benzoxazepine-3-yl]-9H-purine]",1.03 ± 0.05 µM,1.08 ± 0.02 µM,>0.76 kcal/mol,> 100 µM,0.78 ± 0.03 µM,178 to 180 °C,0.12 µM,IC50 [3]: ≤ 1 µM
"Cc1ccc(S(=O)(=O)N2CC(n3cnc4c(Cl)nc(Cl)nc43)OCc3ccccc32)cc1 (stereo not shown) [Compound 7c, 2,6-Dichloro-9-[1-(p-methylbenzenesulfonyl)-1,2,3,5-tetrahydro-4,1-benzoxazepine-3-yl]-9H-purine]",0.86 ± 0.03 µM,0.42 ± 0.01 µM,>0.76 kcal/mol,> 100 µM,0.78 ± 0.05 µM,193 to 195 °C,0.86 ± 0.06 µM,"Bax expression (western blot) (Bax): none expression of Bax; HER2 expression, normalised with β-actin and relative to control (value 1) (HER2; 4 h of treatment): 0.48; HER2 expression, normalised with β-actin and relative to control (value 1) (HER2; 16 h of treatment): 0.07; cytochrome c expression, normalised value relative to control (value 1) (cytochrome c; 4 h of treatment): 0.93; cytochrome c expression, normalised value relative to control (value 1) (cytochrome c; 16 h of treatment): 0.70; caspase 1 expression, normalised value relative to control (value 1) (caspase 1): 3.1; pro-caspase 3 expression, normalised value relative to control (value 1) (pro-caspase 3; 4 h after treatment): 1.18; pro-caspase 3 expression, normalised value relative to control (value 1) (pro-caspase 3; 16 h after treatment): 0.43"
O=[N+]([O-])c1ccccc1S(=O)(=O)N1CC(n2cnc3c(Cl)nc(Cl)nc32)OCc2ccccc21 (stereo not shown) [Compound 4],–,–,–,–,–,–,–,"IC50 ([1]; introduction, no reference number printed at the values, read-out: IC50 against the MCF-7 cell line): 0.383 µM"
"Cc1ccc(S(=O)(=O)N2CC(n3cnc4c(Br)ncnc43)OCc3ccccc32)cc1 (stereo not shown) [Compound 7b, 6-Bromo-9-[1-(p-methylbenzenesulfonyl)-1,2,3,5-tetrahydro-4,1-benzoxazepine-3-yl]-9H-purine]",3.1 ± 0.01 µM,2.3 ± 0.04 µM,>0.76 kcal/mol,> 100 µM,3.08 ± 0.01 µM,169 to 171 °C,9.57 ± 0.03 µM,IC50 [3]: 2.3 to 9.57 µM
O=[N+]([O-])c1ccc(S(=O)(=O)N2CC(n3cnc4ncnc(Sc5ccccc5)c43)OCc3ccccc32)cc1 (stereo not shown) [Compound 1],–,–,–,–,–,–,–,"IC50 [1, 7]: 0.86 µM"
"O=[N+]([O-])c1ccc(S(=O)(=O)N2CC(n3cnc4c(Sc5ccccc5)nc(Cl)nc43)OCc3ccccc32)cc1 (stereo not shown) [Compound 9a, 2-Chloro-6-phenylthio-9-[1-(p-nitrobenzenesulfonyl)-1,2,3,5-tetrahydro-4,1-benzoxazepine-3-yl]-9H-purine]",19.62 ± 0.01 µM,71.69 ± 0.5 µM,-0.8 kcal/mol,7.31 µM,13.3 ± 0.07 µM,183 to 185 °C,26.46 ± 0.03 µM,–
